# Experimental data taken from patent US5401648A, “Peptides having peptidyl transferase inhibiting activity and methods of use thereof” (University of Maryland College Park, priority 1993, dated 1995).
# Tests used:
# [1] = test system: peptidyl transferase activity of the 50S subunits; experiment: Fragment reaction peptidyl transferase assay with dissociated 50S subunits; type: biochemical, B. subtilis BR151
# Procedure: (§1) The fragment reaction was used to assay peptidyl transferase activity. Reaction mixes consisted of 60 mM Tris-HCl (pH 7.4), 400 mM KCl, 20 mM magnesium sulfate, and 1 mM neutralized puromycin in 50 μl, to which was added 25 μl absolute ethanol. Unless specifically noted, 70S ribosomes purified from B. subtilis BR151 as described in Spedding^1/ were added to 0.55 uM ^35 S-labeled N-formylmethionine, charged to tRNA and digested with endonuclease T1 as described by Marcker^2/, was added to each reaction at 1×10^6 to 2×10^6 cpm.
# (§2) Peptide inhibitors were typically preincubated with the ribosomes prior to addition to the other reactants. Antibiotic inhibitors such as chloramphenicol were added to reaction mixes with the ribosomes but without the preincubation step. […] Peptidyl transferase reaction mixes were incubated on ice for 1 h, and were terminated by addition of 50 μl of 0.3M sodium acetate saturated with magnesium sulfate followed by 1 ml of ethyl acetate. The ethyl acetate phase was counted for radioactivity. All peptidyl transferase assays were performed in duplicate or triplicate, and the replicates varied by less than 5%. In separate experiments, the inhibitory activity of a single peptide preparation on a single ribosome preparation varied by as much as 10%.
# The 50S subunit contains the target for the 5-mer peptide. […]
# peptidyl transferase = experiment: Fragment reaction peptidyl transferase assay with 70S ribosomes; type: biochemical, B. subtilis BR151; conditions: preincubation of inhibitor with ribosomes prior to addition to other reactants
# Procedure: as §1, §2
Molecule,effect on the peptidyl transferase activity of the 50S subunits [1],effect of preincubation with ribosomes on inhibitory effect on peptidyl transferase (peptidyl transferase)
"4-mer: 4-mer comparison peptide (SEQ ID NO: 5), sequence not printed in the text (MVKT)",little effect,
O=C(N[C@H](CO)[C@H](O)c1ccc([N+](=O)[O-])cc1)C(Cl)Cl [chloramphenicol],,failed to increase
